Measurements taken from publication PMC6862080, “Blood Compatibility—An Important but Often Forgotten Aspect of the Characterization of Antimicrobial Peptides for Clinical Application” (International Journal of Molecular Sciences, 2019).

Columns and labels:
LPS from E. coli = assay: Endotoxin inactivation in human serum, chromogenic LAL test (E. coli LPS); assay type: biochemical; details: 500 ng/mL peptide, 5 ng/mL LPS, n = 3
Protocol: (§1) The LPS neutralization study in serum was conducted using a chromogenic Limulus Amebocyte Lysate (LAL) test (Charles River Laboratories, MA, USA). The LAL test is the most established method for quantifying LPS. This method uses amebocyte lysate from Limulus polyphemus, wherein the presence of LPS triggers a defense mechanism that induces coagulation. The LAL test is used successfully for detection of LPS in a wide variety of industrial, pharmaceutical, and research applications, such as water supplies, parenteral fluids, drugs for intravenous administration, and certain biologic fluids (e.g., cerebrospinal fluid). Therefore, serum, which was obtained from freshly drawn blood, was spiked with 500 ng/mL AMPs, PMB or LL-37 before adding 5 ng/mL LPS from E. coli or P. aeruginosa. As positive and negative controls, native serum with and without LPS was used, respectively. Endotoxin activity was measured using the LAL assay according to the manufacturer’s specifications.

LPS from P. aeruginosa = assay: Endotoxin inactivation in human serum, chromogenic LAL test (P. aeruginosa LPS); assay type: biochemical; details: 500 ng/mL peptide, 5 ng/mL LPS, n = 3
Protocol: as §1

E. coli (ATCC 11303) = assay: microbe, parasite or virus in culture; assay type: cell-based; details: DIN 58940-8, Müller-Hinton broth, overnight 37 °C, turbidity 620 nm
S. aureus (ATCC 12600) = assay: microbe, parasite or virus in culture; assay type: cell-based; details: DIN 58940-8, Müller-Hinton broth, overnight 37 °C, turbidity 620 nm
E. coli and S. aureus = assay: Scanning electron microscopy of bacterial cell wall damage; assay type: cell-based; details: 128 μg/mL, overnight culture at 37 °C, 2 × 10^5–8 × 10^5 CFU/mL
Protocol: In order to verify and to visualize the impact of AMPs on the bacterial membrane, electron microscopy was conducted. Therefore, bacterial suspensions of E. coli and S. aureus with a concentration of 2 × 10^5–8 × 10^5 CFU/mL were incubated with 128 μg/mL of one AMP (LF11-322-C8) and PMB in a microplate over night at 37 °C. After overnight culture, the bacteria were prepared for SEM. To achieve this, the bacteria suspensions were filtered through a sterile filter (Swinnex filter holders, Merck Millipore, Burlington, MA, USA). The filters with the collected bacteria were than washed with PBS (10 mM, pH 7.2) and fixed with a 2.5% glutaraldehyde solution (Carl Roth, Karlsruhe, Deutschland). The fixed specimens were gradually dehydrated by increasing ethanol solutions (10% to 100%) and sputtered with gold (Q150R ES Sputter Coater, Quorum Technologies Ltd., East Sussex, UK) prior to examination with a scanning electron microscope (FlexSEM 1000, Hitachi, Tokyo, Japan).

erythrocyte membranes [1] = assay: Hemolysis in whole blood (Kahn method); assay type: cell-based, human; details: citrate anticoagulated whole blood, 60 min 37 °C, Kahn method, n = 3, control 3.7 ± 1.9
Protocol: (§2) Hemolysis was tested with fresh citrate anticoagulated blood from healthy volunteers as well as with blood cells which were suspended in phosphate buffered saline (10 mM pH 7.4). Afterwards, 100 μL AMP solution was added to 500 μL blood to finally achieve AMP concentrations of 8, 32, and 128 μg/mL. As the negative and positive control, 100 μL PBS buffer and 100 μL 12% Triton-X buffer was added to 500 μL blood, respectively. After incubation on an orbital shaker for 60 min at 37 °C, the cells were removed by centrifugation and 100 μL of the supernatant were transferred to a 96 well microplate for hemolysis measurement. The hemolysis was calculated from the extinction at the wavelengths 562, 578, and 598 nm with a Synergy 2 microplate reader (BioTek, Winooski, VT, USA) according to the method published by Kahn.

erythrocyte membranes [2] = assay: Hemolysis in RBC suspended in PBS (Kahn method); assay type: cell-based, human; details: 60 min 37 °C, Kahn method, n = 3, control 8.5 ± 4.7
Protocol: as §2

plasmatic coagulation [3] = assay: Activation of the clotting cascade in heparinized plasma; details: heparinized (0.5 IU/mL) plasma, 128 μg/mL, 37 °C, 120 min, turbidity at 600 nm
Protocol: (§3) Plasma spiked with MES buffer without AMP was used as the negative control. […] Samples were incubated at 37 °C for 120 min. Coagulation was determined by turbidity measurement at 600 nm using a well plate reader.

plasmatic coagulation [4] = assay: Activation of the clotting cascade in citrated plasma; details: citrated (17 mM) plasma, 128 μg/mL, 37 °C, 120 min, turbidity at 600 nm
Protocol: as §3

plasmatic coagulation [5] = assay: Clotting batch test in citrate plasma; assay type: biochemical, human; details: citrate plasma, 37 °C, 60 min, turbidity 600 nm, fibrinogen and D-Dimer; further: key: −: no clotting observed, no D-dimers and normal fibrinogen level; +: clotting observed, high D-dimer level, no detectable fibrinogen serum level
Protocol: Since the acylated LF11-322 peptides cause plasmatic coagulation of citrate anticoagulated plasma, separate clotting experiments were performed with this peptide group. The aim was to check whether the coagulation activation is dependent on the AMP concentration and on the acyl chain length. […] Plasma without additives served as the negative control, whereas plasma spiked with CaCl2/MgCl2 (500/250 mM) solution to restore the physiological calcium and magnesium level in plasma was used as the positive control. Incubation was performed at 37 °C for 60 min. […] In order to ensure that the measured turbidity of the plasma is caused by fibrin formation, the fibrinogen and D-Dimer concentrations were additionally determined. During plasmatic clotting, the fibrinogen level decreases and the D-Dimer level in serum increases. Both were analyzed on a Sysmex CA560 with the corresponding reagents (Siemens Healthineers, Erlangen, Germany).

platelets = assay: SEM imaging of platelet morphology in PRP; assay type: cell-based, human; details: 128 μg/mL, 2 h, 37 °C
Protocol: Since it was observed that some AMPs are able to activate the plasmatic coagulation system of heparinized and citrate anticoagulated blood, the influence of this peptides on platelets was investigated. For this purpose, fresh heparinized and citrated blood were collected from three donors. The blood was centrifuged at 500 g for 5 min and platelet rich plasma (PRP) was obtained. The PRP was incubated at 37 °C for 2 h with 128 μg/mL AMP, PMB, and LL-37. PRP without any additives served as the control. After incubation, the platelet number was determined by a Sysmex Automated Hematology Analyzer KX-21-N (Kobe, Japan). In addition, the PRP samples were prepared for SEM to visualize the morphology of the thrombocytes. After incubation, 10 μL PRP were diluted with 990 μL PBS (0.01 M) and filtered through a 0.2 μm membrane (Membrane Filter Isopore 0.2 μm, Merck, Darmstadt, Germany). The platelets were retained on the membrane, washed with 1 mL PBS, and fixed with 1 mL glutaraldehyde solution (2.5% glutaraldehyde in physiological saline solution). After an incubation time of 60 min, the samples were dehydrated using a series of ethanol (30%, 50%, 60%, 70%, 80%, 90%, and 100%). Afterwards the samples were dried overnight at RT, sputtered with gold and visualized with a scanning electron microscope (FLEXSem 1000, Hitachi, Japan).

[6] = tested on: LPS-stimulated leukocytes; details: whole blood, PMB serum level between 100 to 200 ng; cited from earlier work
Protocol: Past studies have shown that a PMB serum level between 100 to 200 ng reduces the cytokine secretion of LPS-stimulated leukocytes up to 90% in whole blood. PMB directly interacts with the conserved lipid A region of the LPS molecule. […] In this study, it was tested whether the lactoferrin based peptides are able to form a complex with LPS similar to PMB, which would lead to a reduction of the inflammatory effect of LPS. The results (Figure 3) indicate that in c ...

[7] = PBS pH 7.4, inoculum 2 × 10^5–8 × 10^5 CFU/mL

Polymyxin B [PMB, reference compound]
Reduction of endotoxin activity of E. coli LPS (LPS from E. coli): 63 ± 7%
Reduction of endotoxin activity of P. aeruginosa LPS (LPS from P. aeruginosa): 74 ± 7%
Minimal Inhibitory Concentration, E. coli, 4% HSA (E. coli (ATCC 11303); 4% human serum albumin): 4 µg/mL
Minimal Inhibitory Concentration, E. coli, PBS + heparin (E. coli (ATCC 11303); PBS containing 5 IU/mL heparin): 4 µg/mL
Minimal Inhibitory Concentration, E. coli, PBS (E. coli (ATCC 11303); [7]): 2 µg/mL
Minimal Inhibitory Concentration, S. aureus, 4% HSA (S. aureus (ATCC 12600); 4% human serum albumin): 64 µg/mL
Minimal Inhibitory Concentration, S. aureus, PBS + heparin (S. aureus (ATCC 12600); PBS containing 5 IU/mL heparin): > 128 µg/mL
Minimal Inhibitory Concentration, S. aureus, PBS (S. aureus (ATCC 12600); [7]): 8 µg/mL
Lysis of bacteria cells seen by SEM (in words) (E. coli and S. aureus): not able to lyse S. aureus cells
Free Hemoglobin, BLOOD, 8 μg/mL (erythrocyte membranes [1]; peptide conc. 8 μg/mL): 3.5 ± 2.8 mg/dL
Free Hemoglobin, BLOOD, 32 μg/mL (erythrocyte membranes [1]; peptide conc. 32 μg/mL): 3.7 ± 1.4 mg/dL
Free Hemoglobin, BLOOD, 128 μg/mL (erythrocyte membranes [1]; peptide conc. 128 μg/mL): 2.6 ± 3.9 mg/dL
Free Hemoglobin, RBC in PBS, 128 μg/mL (erythrocyte membranes [2]; blood cells suspended in PBS 10 mM pH 7.4, highest peptide conc.): 1.9 ± 0.2 mg/dL
Free Hemoglobin, RBC in PBS, 8 μg/mL (erythrocyte membranes [2]; blood cells suspended in PBS 10 mM pH 7.4, peptide conc. 8 μg/mL): 14.9 ± 3.1 mg/dL
Free Hemoglobin, RBC in PBS, 32 μg/mL (erythrocyte membranes [2]; blood cells suspended in PBS 10 mM pH 7.4, peptide conc. 32 μg/mL): 18.9 ± 11.2 mg/dL
Plasma clot, Heparin Plasma (plasmatic coagulation [3]): −
Plasma clot, Citrated Plasma (plasmatic coagulation [4]): −
Clotting of citrate plasma, Peptide Concentration 8 μg/mL (plasmatic coagulation [5]): −
Clotting of citrate plasma, Peptide Concentration 32 μg/mL (plasmatic coagulation [5]): −
Clotting of citrate plasma, Peptide Concentration 128 μg/mL (plasmatic coagulation [5]): −
Clotting of citrate plasma, Peptide Concentration 256 μg/mL (plasmatic coagulation [5]): −
Platelet morphology by SEM, citrate anticoagulated PRP (in words) (platelets): morphologically intact platelets
Reduction of cytokine secretion of LPS-stimulated leukocytes [6]: up to 90%
